Source: US20230391786A1, “cGAS INHIBITORS” (Eli Lilly and Company, priority 2022, published 2023)

The compounds below were run against recombinant human cGAS (Homo sapiens (Human), UniProt Q8N884) (assay: In vitro inhibition assay of cGAS activity (cGAMP production, RapidFire mass spectrometry)). Details: 10 nM recombinant human cGAS, 60 nM 75-bp dsDNA, ATP, GTP, room temperature 3 hours, read-out: IC50 (μM), In vitro inhibition assay for Compounds 1-94.
Format: biochemical
Procedure: Expression and Purification of Recombinant cGAS Protein: Insert cDNA encoding full-length of human cGAS into a modified bacterial expression vector containing an in-frame His6-tag. Induce the E. coli strain BL21(DE3) harboring the plasmid with 1 mM IPTG (Isopropyl β-D-1-thiogalactopyranoside) at 18° C. overnight. Purify the His6-tagged cGAS protein over HISpur Ni-NTA resin in the presence of benzonase and RNase followed by Superdex 200 size exclusion chromatography with storage buffer (50 mM Tris-HCl pH 7.5, 300 mM NaCl, 1 mM DTT, 10% glycerol).
In vitro inhibition assay of cGAS activity: Add a 5 μL mixture containing 10 mM Tris-Cl pH 7.5, 50 mM NaCl, 5 mM MgCl2, 1 mM DTT, 0.01% Triton X-100, 60 nM 75-bp dsDNA, […], 50 μM GTP, 10 nM of recombinant human cGAS, and serial dilutions of a test compound in DMSO to a 384-well plate and incubate at room temperature for 3 hours. Quench the reaction by the addition of 100 μL of stop solution containing 0.1% formic acid and 0.1 μM internal standard (3′3′-difluoro cGAMP). Measure the amount of cGAMP produced by RapidFire 365 mass spectrometry and evaluate inhibitory effect of a compound by plotting percent specific inhibition of cGAMP production against log concentration of the test compound. Calculate IC50 values using a 4-parameter non-linear logistic equation (y=(S0+((SInf−S0)/(1+((qAC50/x)^nHill))))).

Chain of recombinant human cGAS (Q8N884 whole entry): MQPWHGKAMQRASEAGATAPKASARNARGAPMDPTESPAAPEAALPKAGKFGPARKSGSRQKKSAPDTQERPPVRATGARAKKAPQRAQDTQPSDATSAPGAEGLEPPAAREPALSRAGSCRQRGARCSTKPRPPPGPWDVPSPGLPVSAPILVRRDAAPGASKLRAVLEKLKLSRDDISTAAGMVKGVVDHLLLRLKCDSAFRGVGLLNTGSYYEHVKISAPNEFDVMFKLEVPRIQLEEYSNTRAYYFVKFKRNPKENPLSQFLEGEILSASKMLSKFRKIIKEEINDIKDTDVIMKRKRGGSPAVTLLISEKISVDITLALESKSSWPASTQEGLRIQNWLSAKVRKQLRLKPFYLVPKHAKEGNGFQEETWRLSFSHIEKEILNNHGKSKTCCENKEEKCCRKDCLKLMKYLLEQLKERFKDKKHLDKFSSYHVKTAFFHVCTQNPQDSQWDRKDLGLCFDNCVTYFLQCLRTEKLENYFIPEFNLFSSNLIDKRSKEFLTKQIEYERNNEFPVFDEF

SMILES	IC50
CN1Cc2c(-c3cn[nH]c3)c3ccc(Cl)c(Cl)c3n2CC1=O [Example 75, 6,7-Dichloro-2-methyl-10-(1H-pyrazol-4-yl)-1,2-dihydropyrazino[1,2-a]indol-3(4H)-one]	0.045 µM
O=C1Cn2c(c(-c3cn[nH]c3)c3ccc(Cl)c(Cl)c32)CN1CCO [Example 76, 6,7-Dichloro-2-(2-hydroxyethyl)-10-(1H-pyrazol-4-yl)-1,2-dihydropyrazino[1,2-a]indol-3(4H)-one]	0.0452 µM
O=C(O)C1CCCc2c(-c3cn[nH]c3)c3ccc(Cl)c(Cl)c3n2C1 (stereo not drawn) [Example 77, 3,4-Dichloro-11-(1H-pyrazol-4-yl)-7,8,9,10-tetrahydro-6H-azepino[1,2-a]indole-7-carboxylic acid]	0.0157 µM
OC1CCCc2c(-c3cn[nH]c3)c3ccc(Cl)c(Cl)c3n2C1 (stereo not drawn) [Example 78, 3,4-Dichloro-11-(1H-pyrazol-4-yl)-7,8,9,10-tetrahydro-6H-azepino[1,2-a]indol-7-ol]	0.0427 µM
O=C1Cn2c(c(-c3cn[nH]c3)c3ccc(Cl)c(Cl)c32)CCN1CCO [Example 79, 7,8-Dichloro-3-(2-hydroxyethyl)-11-(1H-pyrazol-4-yl)-2,3-dihydro-1H-[1,4]diazepino[1,7-a]indol-4(5H)-one]	0.0753 µM
O=C1NC(CO)Cn2c1c(-c1cn[nH]c1)c1ccc(Cl)c(Cl)c12 (stereo not drawn) [Example 80, 6,7-Dichloro-3-(hydroxymethyl)-10-(1H-pyrazol-4-yl)-3,4-dihydro-2H-pyrazino[1,2-a] indol-1-one]	0.0818 µM
CN1CCOCC1CC(=O)N1CCn2c(c(-c3cn[nH]c3)c3ccc(Cl)c(Cl)c32)C1 (stereo not drawn) [Example 81, 1-[6,7-Dichloro-10-(1H-pyrazol-4-yl)-3,4-dihydro-1H-pyrazino[1,2-a]indol-2-yl]-2-(4-methylmorpholin-3-yl)ethanone]	0.0223 µM
CC(=O)N1CCOC(CC(=O)N2CCn3c(c(-c4cn[nH]c4)c4ccc(Cl)c(Cl)c43)C2)C1 (stereo not drawn) [Example 82, 2-(4-Acetylmorpholin-2-yl)-1-[6,7-dichloro-10-(1H-pyrazol-4-yl)-3,4-dihydro-1H-pyrazino[1,2-a]indol-2-yl]ethanone]	0.046 µM
CN1CCn2c(c(-c3cn[nH]c3)c3ccc(Cl)c(Cl)c32)C1=O [Example 83, 6,7-Dichloro-2-methyl-10-(1H-pyrazol-4-yl)-3,4-dihydropyrazino[1,2-a]indol-1-one]	0.0754 µM
CS(=O)(=O)NCCn1cc(-c2cn[nH]c2)c2c(OCC#N)cc(Cl)c(Cl)c21 [Example 84, N-[2-[6,7-Dichloro-4-(cyanomethoxy)-3-(1H-pyrazol-4-yl)indol-1-yl]ethyl]methanesulfonamide]	0.0815 µM
CN1CCn2c(c(-c3cn[nH]c3)c3c(OCC#N)cc(Cl)c(Cl)c32)C1=O [Example 85, 2-((6,7-Dichloro-2-methyl-1-oxo-10-(1H-pyrazol-4-yl)-1,2,3,4-tetrahydropyrazino[1,2-a]indol-9-yl)oxy)acetonitrile]	0.0257 µM
CN1CCn2c(c(-c3cn[nH]c3)c3c(NCC#N)cc(Cl)c(Cl)c32)C1=O [Example 86, 2-[[6,7-Dichloro-2-methyl-1-oxo-10-(1H-pyrazol-4-yl)-3,4-dihydropyrazino[1,2-a]indol-9-yl]amino]acetonitrile]	0.0485 µM
CN1CCn2c(c(-c3cn[nH]c3)c3c(NCCO)cc(Cl)c(Cl)c32)C1=O [Example 87, 6,7-Dichloro-9-((2-hydroxyethyl)amino)-2-methyl-10-(1H-pyrazol-4-yl)-3,4-dihydropyrazino[1,2-a]indol-1(2H)-one]	0.029 µM
N#CCOc1cc(Cl)c(Cl)c2c1c(-c1cn[nH]c1)c1n2CCNC1 [Example 88, 2-((6,7-Dichloro-10-(1H-pyrazol-4-yl)-1,2,3,4-tetrahydropyrazino[1,2-a]indol-9-yl)oxy)acetonitrile]	0.0219 µM
N#CCOc1cc(Cl)c(Cl)c2c1c(-c1cn[nH]c1)c1n2CCN(C(=O)CO)C1 [Example 89, 2-((6,7-Dichloro-2-(2-hydroxyacetyl)-10-(1H-pyrazol-4-yl)-1,2,3,4-tetrahydropyrazino[1,2-a]indol-9-yl)oxy)acetonitrile]	0.0112 µM
